Where two headings read alike, the source gives them in different places.

Data on eleven compounds can be found in paper PMC12565300, “Novel Cyclic Tetrapeptides as Neuraminidase Inhibitors from a Sponge-Associated Penicillium sp. SCSIO41035” (Marine Drugs, 2025).

One experiment deals with neuraminidase. To be noted: 100 µg/mL; Mean ± SD (n not given); fluorogenic substrate, 37 °C, 30 min; ex 322 nm, em 450 nm; compound in DMSO. As to the method: 4.8. Neuraminidase Inhibitory Assay
The neuraminidase inhibitory activity was evaluated using a Neuraminidase In-hibitor Screening Kit (Beyotime Institute of Biotechnology, Shanghai, China). Assays were carried out in 96-well plates. For each well, 70 μL of neuraminidase assay buffer, 10 μL of neuraminidase solution, and 10 μL of test compound (dissolved in DMSO; final con-centration 100 μg/mL) were gently mixed. The reaction was initiated by adding 10 μL of the fluorogenic substrate to each well, and the plate was incubated at 37 °C for 30 min. Fluorescence was measured on an EnSpire microplate reader with excitation at 322 nm and emission at 450 nm. The fluorescence intensity of neuraminidase was measured at several concentrations to generate a standard curve relating fluorescence signal to enzyme concentration. The fluorescence corresponding to the highest neuraminidase concentration was set as 0% inhibition. Each sample well initially contained neuraminidase at this concentration, and the residual neuraminidase concentration after the reaction was determined from the measured fluorescence using the standard-curve equation. The inhibition percentages were then calculated.

In experiment [1] the test system is two human carcinoma cell lines. The following applies: ref [7], cited from earlier work. The source says:
Cyclic tetrapeptides are a class of natural products with significant potential in drug discovery, characterized by their unique structural features and diverse biological activities. Their cyclic structure confers stability and contributes to their potency, while their low molecular weight and favorable lipophilicity enhance drug-like properties. […] The presence of hydr ...

In the case of `CC12NC(=O)C(C[C@]13C(=O)Nc1ccccc13)n1c2nc2ccccc2c1=O` (stereo partly drawn) [Compound 8, alantrypinone], the “Inhibition Rate (neuraminidase inhibitory activity)” value (shortened to “Inhibition Rate”) with neuraminidase was found to be 43.85 ± 1.41%.
With `O=C1N[C@@]2(CO)c3nc4ccccc4c(=O)n3[C@@H]1C[C@@]21C(=O)Nc2ccccc21` [Compound 9, serantrypinone], in the experiment with neuraminidase, the “Inhibition Rate” value was 51.67 ± 0.42%.
On to `CC(C)/C=C1\NC(=O)[C@H](CCC(N)=O)n2c1nc1ccccc1c2=O` [Compound 10, aurantiomide C], for which, in the experiment on neuraminidase, the “Inhibition Rate” value is on record as 67.54 ± 0.87%.
As for Asperterrestide A, the IC50 (as a rule, the concentration needed to halve the response being measured) in experiment [1] (first of two human carcinoma cell lines, read-out: IC50 against human carcinoma cell line (first of two, unnamed)) is 6.2 µM; in experiment [1] (second of two human carcinoma cell lines, read-out: IC50 against human carcinoma cell line (second of two, unnamed)) it was 6.4 µM.
Penicopeptide B [Compound 1]: the “Inhibition Rate” value in the experiment on neuraminidase is recorded as 52.90 ± 0.37%.
On to Penicopeptide C [Compound 2], for which the “Inhibition Rate” value with neuraminidase is 43.16 ± 1.23%.
On the same count and under the same terms, then Penicopeptide D [Compound 3], with 58.67 ± 3.51%; and Penicopeptide E [Compound 4], with 74.01 ± 1.32%.
On the same count and under the same terms, then Penicopeptide F [Compound 5], with 85.40 ± 0.85%; and Penicopeptide G [Compound 6], with 63.65 ± 0.67%; and Penicopeptide H [Compound 7], with 57.78 ± 0.44%.
